According to PubChem BioAssay AID1963841 (Molecular Pharmacology Branch, DTP, NCI, 2024):

Tested on: 439559-082-T-J2-PDC spheroid viability
Experiment: Anticancer human tumor 439559-082-T-J2-PDC patient-derived colon adenocarcinoma cell line growth inhibition [POLQ]
Settings: spheroids with HUVEC and MSC; for IC50: curve of first compound; for viability, T/C: stronger effect = lower value
Method in brief: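 PDC + HUVEC + MSC complex spheroids; POLQ inhibitors ± partner drugs; top conc. at/near clinical Cmax, else 10 microM (SN-38 1 microM), half-log dilutions; 37 degrees C, 5% CO2.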

[1] = second compound 0.0316 µM, first compound 0.0316 µM
[2] = second compound 0.0316 µM, first compound 0.1 µM
[3] = second compound 0.0316 µM, first compound 0.316 µM
[4] = second compound 0.0316 µM, first compound 1 µM
[5] = second compound 0.1 µM, first compound 0.0316 µM
[6] = second compound 0.1 µM, first compound 0.1 µM
[7] = second compound 0.1 µM, first compound 0.316 µM
[8] = second compound 0.1 µM, first compound 1 µM
[9] = second compound 0.316 µM, first compound 0.0316 µM
[10] = second compound 0.316 µM, first compound 0.1 µM
[11] = second compound 0.316 µM, first compound 0.316 µM
[12] = second compound 0.316 µM, first compound 1 µM
[13] = second compound 1 µM, first compound 0.0316 µM
[14] = second compound 1 µM, first compound 0.1 µM
[15] = second compound 1 µM, first compound 0.316 µM
[16] = second compound 1 µM, first compound 1 µM
[17] = second compound 3.16 µM, first compound 0.0316 µM
[18] = second compound 3.16 µM, first compound 0.1 µM
[19] = second compound 3.16 µM, first compound 0.316 µM
[20] = second compound 3.16 µM, first compound 1 µM
[21] = second compound 10 µM, first compound 0.0316 µM
[22] = second compound 10 µM, first compound 0.1 µM
[23] = second compound 10 µM, first compound 0.316 µM
[24] = second compound 10 µM, first compound 1 µM
[25] = second compound 0.0316 µM, first compound 3.16 µM
[26] = second compound 0.0316 µM, first compound 10 µM
[27] = second compound 0.1 µM, first compound 3.16 µM
[28] = second compound 0.1 µM, first compound 10 µM
[29] = second compound 0.316 µM, first compound 3.16 µM
[30] = second compound 0.316 µM, first compound 10 µM
[31] = second compound 1 µM, first compound 3.16 µM
[32] = second compound 1 µM, first compound 10 µM
[33] = second compound 3.16 µM, first compound 3.16 µM
[34] = second compound 3.16 µM, first compound 10 µM
[35] = second compound 10 µM, first compound 3.16 µM
[36] = second compound 10 µM, first compound 10 µM
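Also: spheroids exposed to compounds for seven days before readout.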
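For viability, T/C in this document: 100% = DMSO vehicle control viability.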

COc1cccc(OCCCN)c1-c1cc(Nc2cnc(C#N)cn2)n[nH]1 + Nc1ccc(C#CCN(C(=O)Cc2ncc(C(F)(F)F)cc2C(F)(F)F)c2ccc(F)cc2)nn1
IC50 (second compound 0.0316 µM): 0.336 µM
IC50 (second compound 0.1 µM): 0.293 µM
IC50 (second compound 0.316 µM): 0.32 µM
IC50 (second compound 1 µM): 0.29 µM
IC50 (second compound 3.16 µM): 0.223 µM
IC50 (second compound 10 µM): 0.0702 µM
viability, T/C (second compound 0.0316 µM, first compound 0.00316 µM): 105%
viability, T/C (second compound 0.0316 µM, first compound 0.01 µM): 95.1%
viability, T/C [1]: 82.2%
viability, T/C [2]: 68.4%
viability, T/C [3]: 58.2%
viability, T/C [4]: 23.1%
viability, T/C (second compound 0.1 µM, first compound 0.00316 µM): 104%
viability, T/C (second compound 0.1 µM, first compound 0.01 µM): 99.3%
viability, T/C [5]: 79.9%
viability, T/C [6]: 66.7%
viability, T/C [7]: 53%
viability, T/C [8]: 22.8%
viability, T/C (second compound 0.316 µM, first compound 0.00316 µM): 101%
viability, T/C (second compound 0.316 µM, first compound 0.01 µM): 97.6%
viability, T/C [9]: 85.4%
viability, T/C [10]: 69%
viability, T/C [11]: 51.6%
viability, T/C [12]: 24.8%
viability, T/C (second compound 1 µM, first compound 0.00316 µM): 106%
viability, T/C (second compound 1 µM, first compound 0.01 µM): 105%
viability, T/C [13]: 76.8%
viability, T/C [14]: 70.6%
viability, T/C [15]: 50.6%
viability, T/C [16]: 22.4%
viability, T/C (second compound 3.16 µM, first compound 0.00316 µM): 106%
viability, T/C (second compound 3.16 µM, first compound 0.01 µM): 95.6%
viability, T/C [17]: 83.2%
viability, T/C [18]: 67.7%
viability, T/C [19]: 41.6%
viability, T/C [20]: 20.4%
viability, T/C (second compound 10 µM, first compound 0.00316 µM): 107%
viability, T/C (second compound 10 µM, first compound 0.01 µM): 96%
viability, T/C [21]: 69.3%
viability, T/C [22]: 42.4%
viability, T/C [23]: 23.8%
viability, T/C [24]: 20.7%

C=CC(=O)N1CCN(c2nc(=O)n(-c3c(C)ccnc3C(C)C)c3nc(-c4c(O)cccc4F)c(F)cc23)C(C)C1 (stereo unspecified) + Cc1cccc(N(C)C(=O)C2C(O)CCN2c2nc(C)cc(C(F)(F)F)c2C#N)c1
IC50 (second compound 0.0316 µM): > 10 µM
IC50 (second compound 0.1 µM): > 10 µM
IC50 (second compound 0.316 µM): > 10 µM
IC50 (second compound 1 µM): > 10 µM
IC50 (second compound 3.16 µM): > 10 µM
IC50 (second compound 10 µM): > 10 µM
viability, T/C [1]: 101%
viability, T/C [2]: 93.8%
viability, T/C [3]: 95.7%
viability, T/C [4]: 108%
viability, T/C [25]: 103%
viability, T/C [26]: 94.9%
viability, T/C [5]: 101%
viability, T/C [6]: 103%
viability, T/C [7]: 97%
viability, T/C [8]: 99.4%
viability, T/C [27]: 107%
viability, T/C [28]: 100%
viability, T/C [9]: 92.7%
viability, T/C [10]: 96.9%
viability, T/C [11]: 98%
viability, T/C [12]: 94.9%
viability, T/C [29]: 96%
viability, T/C [30]: 96.5%
viability, T/C [13]: 107%
viability, T/C [14]: 97.8%
viability, T/C [15]: 96.5%
viability, T/C [16]: 96.5%
viability, T/C [31]: 96%
viability, T/C [32]: 98%
viability, T/C [17]: 101%
viability, T/C [18]: 96.6%
viability, T/C [19]: 92.4%
viability, T/C [20]: 95.6%
viability, T/C [33]: 96.9%
viability, T/C [34]: 101%
viability, T/C [21]: 98.2%
viability, T/C [22]: 93.8%
viability, T/C [23]: 88%
viability, T/C [24]: 83.6%
viability, T/C [35]: 97.1%
viability, T/C [36]: 90.2%

CC1COCCN1c1cc(C2(S(C)(=N)=O)CC2)nc(-c2ccnc3[nH]ccc23)n1 (stereo unspecified) + Cc1cccc(N(C)C(=O)C2C(O)CCN2c2nc(C)cc(C(F)(F)F)c2C#N)c1
IC50 (second compound 0.0316 µM): > 10 µM
IC50 (second compound 0.1 µM): > 10 µM
IC50 (second compound 0.316 µM): > 10 µM
IC50 (second compound 1 µM): > 10 µM
IC50 (second compound 3.16 µM): > 10 µM
IC50 (second compound 10 µM): > 10 µM
viability, T/C [1]: 105%
viability, T/C [2]: 102%
viability, T/C [3]: 104%
viability, T/C [4]: 92.4%
viability, T/C [25]: 83.4%
viability, T/C [26]: 70.5%
viability, T/C [5]: 98.6%
viability, T/C [6]: 101%
viability, T/C [7]: 97.9%
viability, T/C [8]: 101%
viability, T/C [27]: 84.7%
viability, T/C [28]: 70.4%
viability, T/C [9]: 97.3%
viability, T/C [10]: 97.8%
viability, T/C [11]: 103%
viability, T/C [12]: 94.5%
viability, T/C [29]: 94.2%
viability, T/C [30]: 75%
viability, T/C [13]: 102%
viability, T/C [14]: 98.2%
viability, T/C [15]: 101%
viability, T/C [16]: 92.1%
viability, T/C [31]: 89.1%
viability, T/C [32]: 69.2%
viability, T/C [17]: 101%
viability, T/C [18]: 103%
viability, T/C [19]: 99.9%
viability, T/C [20]: 96.6%
viability, T/C [33]: 92.2%
viability, T/C [34]: 68.3%
viability, T/C [21]: 95%
viability, T/C [22]: 89.6%
viability, T/C [23]: 96%
viability, T/C [24]: 96.6%
viability, T/C [35]: 80.5%
viability, T/C [36]: 59.1%
